Data as given in article PMC8445441, “Elucidating the mechanism by which synthetic helper peptides sensitize Pseudomonas aeruginosa to multiple antibiotics” (PLoS Pathogens, 2021).
Where “and” joins values, the source holds several entries; their conditions need not be identical. Equal entries are not always repeated. Where two headings read alike, the source gives them in different places.

Columns and labels:
[1] = system: P. aeruginosa PAO1; assay: microbe, parasite or virus in culture; conditions: PAO1; for FICI / MICac: the MIC for the antibiotic in the combination / MICa: the MIC of antibiotics: S3 Table; for MICa: the MIC of antibiotics / MIC: antibiotic alone; for MIC: Pseudomonas aeruginosa, PAO1, 18 h, read-out: MICa: the MIC of antibiotics, S3 Table
Experimental: (§1) The MIC tests were performed in triplicate using broth microdilution in accordance with Clinical and Laboratory Standards Institute (CLSI) recommendations (http://iacld.ir/DL/public/CLSI-2018-M100-S28.pdf). Briefly, drugs were two-fold diluted in MHB and mixed with an equal volume of bacterial suspensions containing approximately 1 × 10^6 CFU/mL in 96-well microliter plate. After 18 h incubation at 37 °C, the MIC values were defined as the lowest concentrations of antibiotics with no visible growth of bacteria. […] Otherwise, 1/4 MIC of the peptide was used in the combination. […] If needed, membrane compounds PG, PE, PC, CL or LPS, or membrane stabilizers MgCl2 or CaCl2, or efflux pumps inhibitor PAβN were added to the broth medium to clarify the effect of other substances on the synergy between peptide and antibiotics. All the tests were performed in triplicate.
The fractional inhibitory concentration (FIC) indices were calculated using the previously described formula FICI = FICa + FICb = MICac/MICa + MICbc/MICb. The FICI was interpreted according to EUCAST [65] as follows: synergistic, FICI≤0.5; additive, 0.5<FICI≤1; indifferent, 1<FICI<2; antagonistic, FICI ≥2. For the FICI calculations, twice the highest concentration tested was used in the cases where the MIC was not reached.

[2] = system: clinical P. aeruginosa isolates; assay: microbe, parasite or virus in culture; conditions: Pseudomonas aeruginosa, 18 h, antibiotic alone
Experimental: The bacterial strains, primers and plasmids used in this study are listed in S5 Table. […] Bacteria were cultured in LB medium or cation-adjusted Muller-Hinton broth (CA-MHB) at 37 °C with agitation at 220 rpm. All the antibiotics and chemical compounds used in this study were purchased from Sigma-Aldrich.
as §1

[3] = read-out: Antibiotic sensibility (MIC) of clinical P. aeruginosa isolate AUMC-Pa-1, strain AUMC-Pa-1
[4] = read-out: Antibiotic sensibility (MIC) of clinical P. aeruginosa isolate AUMC-Pa-2, strain AUMC-Pa-2
[5] = read-out: Antibiotic sensibility (MIC) of clinical P. aeruginosa isolate AUMC-Pa-3, strain AUMC-Pa-3
[6] = read-out: Antibiotic sensibility (MIC) of clinical P. aeruginosa isolate AUMC-Pa-4, strain AUMC-Pa-4
[7] = read-out: Antibiotic sensibility (MIC) of clinical P. aeruginosa isolate AUMC-Pa-5, strain AUMC-Pa-5
[8] = read-out: Antibiotic sensibility (MIC) of clinical P. aeruginosa isolate AUMC-Pa-6, strain AUMC-Pa-6
[9] = read-out: Antibiotic sensibility (MIC) of clinical P. aeruginosa isolate HM-214, strain HM-214
[10] = read-out: Antibiotic sensibility (MIC) of clinical P. aeruginosa isolate NR-31040, strain NR-31040
[11] = read-out: Antibiotic sensibility (MIC) of clinical P. aeruginosa isolate NR-31041, strain NR-31041

Compound	MICac: the MIC for the antibiotic in the combination ([1]; with 2 μM D-11)	MICac: the MIC for the antibiotic in the combination ([1]; with 4 μM D-11)	MICa: the MIC of antibiotics [1]	MIC [2, 3]	MIC [2, 4]	MIC [2, 5]	MIC [2, 6]	MIC [2, 7]	MIC [2, 8]	MIC [2, 9]	MIC [2, 10]	MIC [2, 11]	MIC [1]	FICI ([1]; antibiotic + 2 μM D-11)	FICI ([1]; antibiotic + 4 μM D-11)
CNC(C)C1CCC(N)C(OC2C(N)CC(N)C(OC3OCC(C)(O)C(NC)C3O)C2O)O1 (stereo not drawn) [Gentamicin]	2 µM	2 µM	1 µM	0.5 µM	0.25 µM	0.0625 µM	0.5 µM	0.5 µM	2 µM	1 µM	32 µM	32 µM		2.063	2.125
CC(=O)NC[C@H]1CN(c2ccc(N3CCOCC3)c(F)c2)C(=O)O1 [Linezolid]	>128/>128 μM	>128/>128 μM		> 128 µM	> 128 µM	> 128 µM	> 128 µM	> 128 µM	> 128 µM	> 128 µM	> 128 µM	> 128 µM	> 128 µM	1.063	1.125
[H]/N=C(/N)N[C@H]1[C@H](O)[C@@H](O)[C@H](O[C@@H]2O[C@@H](C)[C@](O)(C=O)[C@H]2O[C@@H]2O[C@@H](CO)[C@H](O)[C@@H](O)[C@@H]2NC)[C@@H](N/C(N)=N\[H])[C@@H]1O [Streptomycin]	64/64 μM	64/64 μM	64/64 μM	16 µM	8 µM	128 µM	8 µM	8 µM	16 µM	128 µM	> 128 µM	> 128 µM		1.063	1.125

Further lines, with some results ahead:

MICac: the MIC for the antibiotic in the combination ([1]; with 2 μM D-11)	MICac: the MIC for the antibiotic in the combination ([1]; with 4 μM D-11)	MICa: the MIC of antibiotics [1]	MIC [2, 3]	MIC [2, 4]	MIC [2, 5]	MIC [2, 6]	MIC [2, 7]	MIC [2, 8]	MIC [2, 9]	MIC [2, 10]	MIC [2, 11]	MIC [1]	Compound	FICI ([1]; antibiotic + 2 μM D-11)	FICI ([1]; antibiotic + 4 μM D-11)
1/1 μM	2 µM	1/1 μM and 1 μM	1 µM	0.25 µM	0.0625 µM	1 µM	1 µM	2 µM	1 µM	4 µM	2 µM		NCC[C@H](O)C(=O)N[C@@H]1C[C@H](N)[C@@H](O[C@H]2O[C@H](CN)[C@@H](O)[C@H](O)[C@H]2O)[C@H](O)[C@H]1O[C@H]1O[C@H](CO)[C@@H](O)[C@H](N)[C@H]1O [Amikacin]	1.063	2.125
>128/>128 μM	>128/>128 μM		> 128 µM	> 128 µM	> 128 µM	> 128 µM	> 128 µM	> 128 µM	> 128 µM	> 128 µM	> 128 µM	> 128 µM	CC1(C)S[C@@H]2[C@H](NC(=O)[C@H](N)c3ccc(O)cc3)C(=O)N2[C@H]1C(=O)O [Amoxicin, Amoxicillin]		1.125
